Columns and labels:
mosquito larvae = format: in vivo; details: liposomal essential oils in pond water
Sinorhizobium meliloti = assay: Microbial growth in 96-well plate, change in absorbance at 630 nm; format: cell-based; details: for overall potency order of essential oils: essential oils in de-oiled lecithin liposomes with triglyceride

Structure (SMILES): C=CCc1ccc(O)c(OC)c1 [eugenol]
- larvicidal activity order (mosquito larvae): thymol>cinnamaldehyde˜d-limonene>citronella˜eugenol>sandalwood oil˜coriander oil˜lavender oil

Structure (SMILES): O=CC=Cc1ccccc1 [cinnamaldehyde]
- larvicidal activity order (mosquito larvae): thymol>cinnamaldehyde˜d-limonene>citronella˜eugenol>sandalwood oil˜coriander oil˜lavender oil
- overall potency order of essential oils (Sinorhizobium meliloti): vetiver≈cinnamaldehyde>citronella≈sandalwood≈bayleaf≈patchouli≈rosewood>linalool≈d-limonene
- activity as a single agent (Sinorhizobium meliloti; liposomes with 0, 20 or 45 wt % triglyceride, particularly notable at 45%): greater activity than citronella

Structure (SMILES): C=C(C)[C@H]1CC=C(C)CC1 [d-limonene]
- larvicidal activity order (mosquito larvae): thymol>cinnamaldehyde˜d-limonene>citronella˜eugenol>sandalwood oil˜coriander oil˜lavender oil
- overall potency order of essential oils (Sinorhizobium meliloti): vetiver≈cinnamaldehyde>citronella≈sandalwood≈bayleaf≈patchouli≈rosewood>linalool≈d-limonene

Structure (SMILES): COc1cc(/C=C/C(=O)CC(=O)/C=C/c2ccc(O)c(OC)c2)ccc1O [diferuloylmethane, reference compound]
- antimicrobial activity of marker label (Sinorhizobium meliloti; in liposome membrane): no antimicrobial activity

Structure (SMILES): Cc1ccc(C(C)C)c(O)c1 [thymol]
- larvicidal activity order (mosquito larvae): thymol>cinnamaldehyde˜d-limonene>citronella˜eugenol>sandalwood oil˜coriander oil˜lavender oil

Reference: US11622556B2, “Re-oiled and hyper-oiled lecithin carrier vehicles” (BIO-UP MIMETIC TECHNOLOGIES, INC., priority 2016, dated 2023)
